Experimental data as given in patent US8247211B2, “Glycopeptide antibiotics” (American Cyanamid Company, priority 2001, dated 2012).
≈ marks a conversion by molar mass, not a printed value.

Assays:
Streptococcus sp. = test: In vitro antibacterial evaluation: minimum inhibitory concentration (MIC), broth dilution method; type: cell-based; conditions: broth dilution, 18 hours at 35° C.
Protocol: (§1) The minimum inhibitory concentration (MIC), the lowest concentration of the antibiotic which inhibits growth of the test organism, is determined by the broth dilution method using Muller-Hinton II […] (Baltimore Biological Laboratories) following the recommendations of the National Committee for Clinical Laboratory Standards [Methods for dilution antimicrobial susceptibility tests for bacteria that grow aerobically, approved standard M7-A2, National Committee for Clinical Laboratory Standards, Villanova, Pa].
(§2) An inoculum level of 5×10^5 CFU/mL, and a range of antibiotic concentrations (64-0.06 μg/mL) is used. […] The test organisms include a spectrum of Gram-positive bacteria comprised of Staphylococcus sp., Streptococcus sp. and Enterococcus sp. These organisms include recent clinical isolates that are resistant to methicillin, penicillin and/or vancomycin.

Enterococcus sp. = test: as above; type: cell-based; conditions: broth dilution, 18 hours at 35° C.
Protocol: as §1, §2

[1] = Streptococcus pneumoniae (GC 4565)
[2] = Streptococcus pneumoniae (GC 1894)

Row | MIC Streptococcus pneumoniae (GC 4565) (Streptococcus sp.; [1]) | MIC Streptococcus pneumoniae (GC 4565) (Streptococcus sp.) | MIC Streptococcus pneumoniae (GC 1894) (Streptococcus sp.; [2]) | MIC Streptococcus pneumoniae (GC 1894) (Streptococcus sp.) | MIC Enterococcus faecium (GC 4557) (Enterococcus sp.; Enterococcus faecium (GC 4557)) | MIC Enterococcus faecium (GC 4557) (Enterococcus sp.) | MIC Streptococcus agalactiae (GC 4564) (Streptococcus sp.; Streptococcus agalactiae (GC 4564)) | MIC Streptococcus pneumoniae (ATCC 6301) (Streptococcus sp.; Streptococcus pneumoniae (ATCC 6301)) | MIC Streptococcus pyogenes (GC 4563) (Streptococcus sp.; Streptococcus pyogenes (GC 4563)) | MIC Streptococcus agalactiae (GC 4564) (Streptococcus sp.) | MIC Streptococcus pneumoniae (ATCC 6301) (Streptococcus sp.) | MIC Streptococcus pyogenes (GC 4563) (Streptococcus sp.) | SMILES
1 | 64 µg/mL (≈ 61.4 µM) | 64 µg/mL (≈ 61.4 µM) | – | – | – | – | – | – | – | – | – | – | CCC(=O)Nc1cc(CC2NC(=O)C(C(C)c3ccccc3)NC(=O)CNC(=O)C(CO)NC(=O)C(C(O)C3CNC(=N)N3C3OC(CO)C(O)C(O)C3O)NC(=O)C(C(O)C3CNC(=N)N3)NC2=O)ccc1O (stereo not drawn) [Example 14, Cyclo[glycyl-β-methylphenylalanyl-3-(propanamido)tyrosyl-3-(2-iminoimidazolidin-4-yl)seryl-3-(3-hexopyranosyl-2-iminoimidazolidin-4-yl)serylseryl]]
2 | 64 µg/mL (≈ 60.6 µM) | 64 µg/mL (≈ 60.6 µM) | – | – | – | – | – | – | – | – | – | – | CC(C)C(=O)Nc1cc(CC2NC(=O)C(C(C)c3ccccc3)NC(=O)CNC(=O)C(CO)NC(=O)C(C(O)C3CNC(=N)N3C3OC(CO)C(O)C(O)C3O)NC(=O)C(C(O)C3CNC(=N)N3)NC2=O)ccc1O (stereo not drawn) [Example 15, Cyclo[glycyl-β-methylphenylalanyl-3-(2-methylpropanamido)tyrosyl-3-(2-iminoimidazolidin-4-yl)seryl-3-(3-hexopyranosyl-2-iminoimidazolidin-4-yl)serylseryl]]
3 | – | – | 64 µg/mL (≈ 57.1 µM) | 64 µg/mL (≈ 57.1 µM) | – | – | – | – | – | – | – | – | Cc1ccc(OC(=O)Nc2cc(CC3NC(=O)C(C(C)c4ccccc4)NC(=O)CNC(=O)C(CO)NC(=O)C(C(O)C4CNC(=N)N4C4OC(CO)C(O)C(O)C4O)NC(=O)C(C(O)C4CNC(=N)N4)NC3=O)ccc2O)cc1 (stereo not drawn) [Example 19, Cyclo[glycyl-β-methylphenylalanyl-3-[[(4-methylphenoxy)carbonyl]amino]tyrosyl-3-(2-iminoimidazolidin-4-yl)seryl-3-(3-hexopyranosyl-2-iminoimidazolidin-4-yl)serylseryl]]
4 | 8 µg/mL (≈ 7.91 µM) | 8 µg/mL (≈ 7.91 µM) | 8 µg/mL (≈ 7.91 µM) | 8 µg/mL (≈ 7.91 µM) | 64 µg/mL (≈ 63.2 µM) | 64 µg/mL (≈ 63.2 µM) | 32 µg/mL (≈ 31.6 µM) | 8 µg/mL (≈ 7.91 µM) | 32 µg/mL (≈ 31.6 µM) | 32 µg/mL (≈ 31.6 µM) | 8 µg/mL (≈ 7.91 µM) | 32 µg/mL (≈ 31.6 µM) | CC(c1ccccc1)C1NC(=O)CNC(=O)C(CO)NC(=O)C(C(O)C2CNC(=N)N2C2OC(CO)C(O)C(O)C2O)NC(=O)C(C(O)C2CNC(=N)N2)NC(=O)C(Cc2ccc3oc(=O)[nH]c3c2)NC1=O (stereo not drawn) [Example 22, Cyclo[3-(2,3-dihydro-2-oxo-1,3-benzoxazol-5-yl)alanyl-3-(2-iminoimidazolidin-4-yl)seryl-3-(3-hexopyranosyl-2-iminoimidazolidin-4-yl)serylserylglycyl-β-methylphenylalanyl]]
